This is an account of results in paper PMC8944975, “Secretin Receptor as a Target in Gastrointestinal Cancer: Expression Analysis and Ligand Development” (Biomedicines, 2022).

Read-outs that look alike come from different tables or passages of the source. Where a SMILES comes first, the peptide text is derived from it. Where no end group is shown, it is not given here. [ ]: non-standard residue; d: D form.

Common to all, as to assay type: cell-based
Experiment [1] addresses T1, human SCTR (Homo sapiens, UniProt P47872). In words: GloSensor cAMP assay, agonist mode. Particulars: for Emax: read-out: cAMP Production, Intrinsic Activity. Also noted: expressed in transfected cells. The method, then:
Analysis of downstream signaling of activated SCTR via Gαs G-protein subunits was performed by monitoring intracellular cAMP utilizing the GloSensor system (Promega, Walldorf, Germany) in accordance with the supplier protocol. Measurements were performed using the EnVision Analyzer (PerkinElmer, Rodgau, Germany). For evaluation, concentration–response curves (signal-to-noise ratios plotted) employing the derived statistical mean and SD for estimation of the respective EC50 were calculated using Spotfire Decision Site (TIBCO, Palo Alto, CA, USA). For the analysis of antagonists, a modified protocol was used. Treatment of cells and dilution of the potential antagonist was performed as previously described. Ligand dilutions were added to cells and incubated at room temperature for 5 min. Successively, secretin was added at a final concentration of 0.5 nM for an additional 15 min at room temperature. The emitted chemiluminescence, which correlates with the cAMP concentration, was detected with suitable filters. Evaluation of data was performed as previously described with a calculation of half-maximal inhibitory concentration (IC50).

Experiment [2] addresses T1, human SCTR. The experiment is described as follows: agonist-induced β-arr2-GFP translocation. Also noted: expressed in transfected cells; host or cells: U2OS (human osteosarcoma), stably co-transfected with β-arrestin2-GFP. Particulars: Supplementary Tables S1 and S2, decimal comma, '-' not detectable (Figure 4); for β-arrestin2-GFP agonism efficacy: % of wild-type secretin; for EC50: U2OS-SCTR/β-arr2-GFP cells, 20 min at 37 °C, mean of at least three independent experiments in duplicates, read-out: β-arrestin2-GFP agonism potency. From the text:
(§1) U2OS-SCTR/β-arr2-GFP: human osteosarcoma cell line U2OS (purchased from ATCC/LGC Standards, Wesel, Germany) were stably transfected with plasmids encoding SCTR (Homo sapiens) and the fusion protein β-arrestin2-green fluorescent protein (GFP) (Rattus norvegicus-Aequorea victoria) (β-arr2-GFP).
To evaluate reactivity of human SCTR exposed to different ligand variants, intracellular translocation of a fusion protein of β-arrestin2 and green fluorescent protein was utilized. For evaluation of activation, receptor-mediated recruitment of cytoplasmic β-arr2-GFP was monitored through its translocation into condensed intracellular vesicles. The extent of translocation events was quantified by determining the increasing granularization of the intracellular fluorescence utilizing an automated high-throughput microscope in combination with computational algorithms to estimate potency (EC50) and efficacy, thus characterizing ligand-SCTR interaction. U2OS-SCTR/β-arr2-GFP cells were seeded in 96-well cell culture plates to 60–80% confluence. On the following day, preceding stimulation, cells were incubated for one hour in serum-free medium. Ligand variants were applied as serial dilutions in assay buffer C1. After preincubation, supernatant was discarded by tapping plates overhead repeatedly. For stimulation, 50 µL of ligand dilution was applied per well in duplicates and incubated for 20 min at 37 °C. Successively, cells were fixed by applying 4% buffered formaldehyde (Herbeta Arzneimittel, Berlin, Germany) for 10 min at room temperature and consecutively permeabilized for 10 min at room temperature with 0.1% TritonX-100 in PBS, containing DAPI (4′,6-Diamidin-2-phenylindol, SigmaAldrich, Deisenhofen, Germany, 1 µg/mL) to counterstain nuclei. Microscopic images were recorded by an IN Cell Analyzer 1000 (GE Healthcare, Reading, UK) with 20× magnification at 5 frames per well in a 96-well format. Image processing was performed with IN Cell Investigator software (GE Healthcare, Reading, UK), applying the provided granularity algorithm. The output of the analysis was indicated as vesicle area/cell and was utilized for calculation of concentration–response curves. Parameters derived from curve fitting included the concentration of half-maximal activity (EC50), and intrinsic activity. Intrinsic activity was normalized defining reaction to non-modified wild type secretin as the 100% curve maximum value.

The target of experiment [3] is T1, human SCTR. The experiment is described as follows: β-arr2-GFP translocation assay run in antagonist mode. For IC50, inhibition of β-arr2-GFP translocation (Table 3): peptide 5 min at 37 °C. Set-up: expressed in transfected cells; host or cells: U2OS (human osteosarcoma), stably co-transfected with β-arrestin2-GFP.
Excerpt: as §1
For analysis of antagonistic effects on SCTR, a slightly modified protocol of the β-arr2-GFP translocation was used. […] For analysis, cells were terminally fixed and permeabilized as previously described. The additional monitoring of IDCC fluorescence in the near-infrared channel (667 nm) provided another measure for receptor binding and activation.

Setting [4] is: Supplementary Table S2, GloSensor system, at least three independent experiments in duplicates, decimal comma, read-out: cAMP agonism potency.
[5] abbreviates: read-out: IC50, inhibition of β-arr2-GFP translocation (Table 2).
Where [6] appears, read: GloSensor cAMP assay, at least 3 independent experiments in duplicates.

T1 sequence (P47872 23-440): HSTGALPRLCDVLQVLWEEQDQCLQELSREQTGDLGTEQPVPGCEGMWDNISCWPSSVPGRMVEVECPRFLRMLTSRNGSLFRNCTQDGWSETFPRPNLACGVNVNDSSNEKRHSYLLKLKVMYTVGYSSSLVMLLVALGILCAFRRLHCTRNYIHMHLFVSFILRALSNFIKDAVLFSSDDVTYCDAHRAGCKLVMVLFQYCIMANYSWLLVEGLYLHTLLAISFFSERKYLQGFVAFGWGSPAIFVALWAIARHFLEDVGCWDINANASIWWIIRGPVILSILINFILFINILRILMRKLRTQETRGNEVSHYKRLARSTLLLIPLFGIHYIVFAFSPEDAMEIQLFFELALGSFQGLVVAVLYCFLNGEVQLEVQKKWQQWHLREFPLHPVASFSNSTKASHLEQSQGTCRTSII

On to HSDGTFTSELSRLREGARLQRLL [Peptide 100], for which the EC50 in experiment [1] (setting [4]) was 7.63 nM. In addition, in experiment [2], the β-arrestin2-GFP agonism efficacy is given as 92,23 % Sec and the EC50 came to 131 nM.

For the compound `CC(C)C[C@H](NC(=O)CNC(=O)[C@H](CCC(N)=O)NC(=O)[C@H](CC(C)C)NC(=O)[C@H](CC(C)C)NC(=O)[C@H](CCCNC(=N)N)NC(=O)[C@H](CCC(N)=O)NC(=O)[C@H](CC(C)C)NC(=O)[C@H](CCCNC(=N)N)NC(=O)[C@H](C)NC(=O)CNC(=O)[C@H](CCC(=O)O)NC(=O)[C@H](CCCNC(=N)N)NC(=O)[C@H](CC(C)C)NC(=O)[C@H](CCCNC(=N)N)NC(=O)[C@H](CO)NC(=O)[C@H](CC(C)C)NC(=O)[C@H](CCC(=O)O)NC(=O)[C@@H](N)CO)C(=O)N[C@H](C(=O)O)C(C)C` [Peptide 121], the EC50 in experiment [1] (setting [4]) is above 10000 nM. For the same compound, the IC50 in experiment [3] (setting [5]) is 2730 ± 60 nM.

On to HSDGTFTSELSRLREGARLQRLLQG [Peptide 98], for which the EC50 turned out to be 1.55 nM in experiment [1] (setting [4]) and 26.5 nM in experiment [2]. For the same compound, the β-arrestin2-GFP agonism efficacy in experiment [2] is 104,47 % Sec.

For the compound HSDGTFTSELSRLREGARLQRLLQGL [Peptide 97], in experiment [1] (setting [4]), the EC50 is 0.51 nM. Besides, in experiment [2], the β-arrestin2-GFP agonism efficacy was 109,53 % Sec and the EC50 was found to be 8.8 nM.

As to HSDGTFTSELSRLREGARLQRL [Peptide 101], the EC50 in experiment [1] (setting [4]) was 57 nM.

With HSDGTFTSELSRLREGARLQRLLQ [Peptide 99], the values for the EC50 in experiment [1] (setting [4]) and in experiment [2] were 2.09 nM and 35.9 nM, respectively. In addition, in experiment [2], the β-arrestin2-GFP agonism efficacy was 103,60 % Sec.

Regarding `CC(C)C[C@H](NC(=O)CNC(=O)[C@H](CCC(N)=O)NC(=O)[C@H](CC(C)C)NC(=O)[C@H](CC(C)C)NC(=O)[C@H](CCCNC(=N)N)NC(=O)[C@H](CCC(N)=O)NC(=O)[C@H](CC(C)C)NC(=O)[C@H](CCCNC(=N)N)NC(=O)[C@H](C)NC(=O)CNC(=O)[C@H](CCC(=O)O)NC(=O)[C@H](CCCNC(=N)N)NC(=O)[C@H](CC(C)C)NC(=O)[C@H](CCCNC(=N)N)NC(=O)[C@H](CO)NC(=O)[C@H](CC(C)C)NC(=O)[C@H](CCC(=O)O)NC(=O)[C@H](CO)NC(=O)[C@@H](N)[C@@H](C)O)C(=O)N[C@H](C(N)=O)C(C)C` [Peptide 120], the Emax in experiment [1] (setting [6]) was 90.6 ± 11.5%. For the same compound, the EC50 in experiment [1] (GloSensor cAMP assay, at least 3 independent experiments in duplicates, read-out: cAMP Production, EC50) came to 3370 ± 1570 nM. For the same compound, the IC50 was above 3000 nM in experiment [3] (setting [5]) and above 3000 nM in experiment [3] (read-out: Inhibition of β-arr2-GFP Translocation, IC50).

With HSDGTFTSELSRLREGARLQR [Peptide 102], the EC50 in experiment [1] (setting [4]) was 586 nM.

Consider `CC(C)C[C@H](NC(=O)CNC(=O)[C@H](CCC(N)=O)NC(=O)[C@H](CC(C)C)NC(=O)[C@H](CC(C)C)NC(=O)[C@H](CCCNC(=N)N)NC(=O)[C@H](CCC(N)=O)NC(=O)[C@H](CC(C)C)NC(=O)[C@H](CCCNC(=N)N)NC(=O)[C@H](C)NC(=O)CNC(=O)[C@H](CCC(=O)O)NC(=O)[C@H](CCCNC(=N)N)NC(=O)[C@H](CC(C)C)NC(=O)[C@H](CCCNC(=N)N)NC(=O)[C@H](CO)NC(=O)[C@H](CC(C)C)NC(=O)[C@H](CCC(=O)O)NC(=O)[C@H](CO)NC(=O)[C@@H](NC(=O)[C@H](Cc1ccccc1)NC(=O)[C@@H](NC(=O)CNC(=O)[C@H](CC(=O)O)NC(=O)[C@@H](N)CO)[C@@H](C)O)[C@@H](C)O)C(=O)N[C@H](C(=O)O)C(C)C` [Peptide 115], for which the EC50 in experiment [1] (setting [4]) is 22 nM. In experiment [3] (setting [5]), the IC50 amounted to 1280 ± 703 nM.

On to HSDGTFTSELSRLREGARLQ [Peptide 103], for which the EC50 in experiment [1] (setting [4]) turned out to be 875 nM.

In the case of `CC(C)C[C@H](NC(=O)CNC(=O)[C@H](C)NC(=O)[C@H](CC(C)C)NC(=O)[C@H](CC(C)C)NC(=O)[C@H](CCCNC(=N)N)NC(=O)[C@H](CCC(N)=O)NC(=O)[C@H](CC(C)C)NC(=O)[C@H](CCCNC(=N)N)NC(=O)[C@H](C)NC(=O)CNC(=O)[C@H](CCC(=O)O)NC(=O)[C@H](CCCNC(=N)N)NC(=O)[C@H](CC(C)C)NC(=O)[C@H](CCCNC(=N)N)NC(=O)[C@H](CO)NC(=O)[C@H](CC(C)C)NC(=O)[C@H](CCC(=O)O)NC(=O)[C@H](CO)NC(=O)[C@@H](NC(=O)[C@H](Cc1ccccc1)NC(=O)[C@H](N)CCCNC(=N)N)[C@@H](C)O)C(=O)N[C@H](C(=O)O)C(C)C` [Peptide 143], the Emax in experiment [1] (setting [6]) stood at 27.5 ± 8.8%.

As to `CC(C)C[C@H](NC(=O)CNC(=O)[C@H](CCC(N)=O)NC(=O)[C@H](CC(C)C)NC(=O)[C@H](CC(C)C)NC(=O)[C@H](CCCNC(=N)N)NC(=O)[C@H](CCC(N)=O)NC(=O)[C@H](CC(C)C)NC(=O)[C@H](CCCNC(=N)N)NC(=O)[C@H](C)NC(=O)[C@H](C)NC(=O)[C@H](CCC(=O)O)NC(=O)[C@H](CCCNC(=N)N)NC(=O)[C@H](CC(C)C)NC(=O)[C@H](CCCNC(=N)N)NC(=O)[C@H](CO)NC(=O)[C@H](CC(C)C)NC(=O)[C@H](CCC(=O)O)NC(=O)[C@H](CO)NC(=O)[C@@H](NC(=O)[C@H](Cc1ccccc1)NC(=O)[C@H](N)CCCNC(=N)N)[C@@H](C)O)C(=O)N[C@H](C(=O)O)C(C)C` [Peptide 136], the Emax in experiment [1] (setting [6]) was 33.6 ± 0.9%.

Turning to `CC(C)C[C@H](NC(=O)CNC(=O)[C@H](CCC(N)=O)NC(=O)[C@H](CC(C)C)NC(=O)[C@H](CC(C)C)NC(=O)[C@H](CCCNC(=N)N)NC(=O)[C@H](CCC(N)=O)NC(=O)[C@H](CC(C)C)NC(=O)[C@H](CCCNC(=N)N)NC(=O)[C@H](C)NC(=O)CNC(=O)[C@H](CCC(=O)O)NC(=O)[C@H](C)NC(=O)[C@H](CC(C)C)NC(=O)[C@H](CCCNC(=N)N)NC(=O)[C@H](CO)NC(=O)[C@H](CC(C)C)NC(=O)[C@H](CCC(=O)O)NC(=O)[C@H](CO)NC(=O)[C@@H](NC(=O)[C@H](Cc1ccccc1)NC(=O)[C@H](N)CCCNC(=N)N)[C@@H](C)O)C(=O)N[C@H](C(=O)O)C(C)C` [Peptide 134] (H-[dR]FTSELSRLAEGARLQRLLQGLV-OH), the IC50 in experiment [3] (read-out: IC50, inhibition of β-arr2-GFP translocation (Table 3)) worked out at 1580 ± 77 nM.

For `CC(C)C[C@H](NC(=O)[C@H](C)NC(=O)[C@H](CCC(N)=O)NC(=O)[C@H](CC(C)C)NC(=O)[C@H](CC(C)C)NC(=O)[C@H](CCCNC(=N)N)NC(=O)[C@H](CCC(N)=O)NC(=O)[C@H](CC(C)C)NC(=O)[C@H](CCCNC(=N)N)NC(=O)[C@H](C)NC(=O)CNC(=O)[C@H](CCC(=O)O)NC(=O)[C@H](CCCNC(=N)N)NC(=O)[C@H](CC(C)C)NC(=O)[C@H](CCCNC(=N)N)NC(=O)[C@H](CO)NC(=O)[C@H](CC(C)C)NC(=O)[C@H](CCC(=O)O)NC(=O)[C@H](CO)NC(=O)[C@@H](NC(=O)[C@H](Cc1ccccc1)NC(=O)[C@H](N)CCCNC(=N)N)[C@@H](C)O)C(=O)N[C@H](C(=O)O)C(C)C` [Peptide 144], the Emax in experiment [1] (setting [6]) was determined as 31.1 ± 2.2%.
